Values quoted from earlier work, collected in US20140288136A1, “METHODS AND USES OF CYTOCHROME P450 INHIBITORS” (ANGION BIOMEDICA CORP, priority 2009, published 2014).
Where two headings read alike, the source gives them in different places.

Tested on: hepatitis C
Details: chronic hepatitis C infection

In the case of interferon, the response (in combination with ribavirin) is listed as roughly 50% and the response (used alone) is listed as roughly 20%.
